Data from patent publication US20140357487A1, “PLANTS HAVING INCREASED TOLERANCE TO HERBICIDES” (BASF SE, priority 2011, published 2014).

Legend:
[1] = tested on: transgenic soybean plants, Arabidopsis M335H, event SDS-9977; assay: Greenhouse testing of transgenic soybean plants, Arabidopsis M335H; type: in vivo, Glycine max; conditions: soybean SDS-9977, 5 days after herbicide treatment, average of 8 T1
Description: (§1) Various methods for the production of stably transformed plants are well known in the art. Coumarone-derivative herbicide tolerant soybean (Glycine max) or corn (Zea mays) plants can be produced by a method described by Olhoft et al. (US patent 2009/0049567). Briefly, HPPD or HST encoding polynucleotides are cloned into a binary vector using standard cloning techniques as described by Sambrook et al. (Molecular cloning (2001) Cold Spring Harbor Laboratory Press). The final vector construct contains an HPPD or HST encoding sequence flanked by a promoter sequence (e.g. the ubiquitin promoter (PcUbi) sequence) and a terminator sequence (e.g. the nopaline synthase terminator (NOS) sequence) and a resistance marker gene cassette (e.g. AHAS) (FIG. 2). Optionally, the HPPD or HST gene can provide the means of selection. Agrobacterium-mediated transformation is used to introduce the DNA into soybean's axillary meristem cells at the primary node of seedling explants. After inoculation and co-cultivation with Agrobacteria, the explants are transferred to shoot induction medium without selection for one week. The explants are subsequently transferred to shoot induction medium with 1-3 μM imazapyr (Arsenal) for 3 weeks to select for transformed cells. Explants with healthy callus/shoot pads at the primary node are then transferred to shoot elongation medium containing 1-3 μM imazapyr until a shoot elongates or the explant dies. After regeneration, transformants are transplanted to soil in small pots, placed in growth chambers (16 hr day/8 hr night; 25° C. day/23° C. night; 65% relative humidity; 130-150 mE m−2 s−1) and subsequently tested for the presence of the T-DNA via Taqman analysis. After a few weeks, healthy, transgenic positive, single copy events are transplanted to larger pots and allowed to grow in the growth chamber. Transformation of corn plants is done by a method described by McElver and Singh (WO 2008/124495). Plant transformation vector constructs containing HPPD or HST sequences are introduced into maize immature embryos via Agrobacterium-mediated transformation. Transformed cells are selected in selection media supplemented with 0.5-1.5 μM imazethapyr for 3-4 weeks. Transgenic plantlets are regenerated on plant regeneration media and rooted afterwards. Transgenic plantlets are subjected to TaqMan analysis for the presence of the transgene before being transplanted to potting mixture and grown to maturity in greenhouse. Arabidopsis thaliana is transformed with HPPD or HST sequences by floral dip method as described by McElver and Singh (WO 2008/124495). Transgenic Arabidopsis plants are subjected to Tag Man analysis for analysis of the number of integration loci. Transformation of Oryza sativa (rice) are done by protoplast transformation as described by Peng et al. (U.S. Pat. No. 6,653,529)
(§2) Transgenic plants expressing heterologous HPPD or HST enzymes are tested for tolerance against coumarone-derivative herbicides in greenhouse experiments.
(§3) For post emergence treatment, the test plants are first grown to a height of 3 to 15 cm, depending on the plant habit, and only then treated with the herbicides. For this purpose, the test plants are either sown directly and grown in the same containers, or they are first grown separately and transplanted into the test containers a few days prior to treatment.
(§4) Depending on the species, the plants are kept at 10-25° C. or 20-35° C. The test period extends over 3 weeks. During this time, the plants are tended and their response to the individual treatments is evaluated. […] Tolerance to coumarone-derivative herbicides can also be assessed in Arabidopsis. In this case transgenic Arabidopsis thaliana plants are assayed for improved tolerance to coumarone-derivative herbicides in 48-well plates. Seeds are surface sterilized by stirring for 5 min in ethanol+water (70+30 by volume), rinsing one time with ethanol+water (70+30 by volume) and two times with a sterile, deionized water. […]

[2] = tested on: transgenic corn plants, Arabidopsis M335H, event SDM-71923; assay: Greenhouse testing of transgenic corn plants, Arabidopsis M335H; type: in vivo, Zea mays; conditions: corn SDM-71923, 5 days after herbicide treatment, average of 8 T1
Description: as §1, §2, §3, §4

[3] = tested on: Arabidopsis wildtype control plants; assay: Arabidopsis growth inhibition in 48-well plates, wildtype control; type: in vivo, Arabidopsis thaliana; conditions: plant growth IC50 of line divided by that of wildtype plants
Protocol: Depending on the species, the plants are kept at 10-25° C. or 20-35° C. The test period extends over 3 weeks. During this time, the plants are tended and their response to the individual treatments is evaluated. Herbicide injury evaluations are taken at 2 and 3 weeks after treatment. Plant injury is rated on a scale of 0 to 9, 0 being no injury and 9 being complete death. Tolerance to coumarone-derivative herbicides can also be assessed in Arabidopsis. In this case transgenic Arabidopsis thaliana plants are assayed for improved tolerance to coumarone-derivative herbicides in 48-well plates. Seeds are surface sterilized by stirring for 5 min in ethanol+water (70+30 by volume), rinsing one time with ethanol+water (70+30 by volume) and two times with a sterile, deionized water. The seeds are resuspended in 0.1% agar dissolved in water (w/v). Four to five seeds per well are plated on solid nutrient medium consisting of half-strength Murashige Skoog nutrient solution, pH 5.8 (Murashige and Skoog (1962) Physiologia Plantarum 15: 473-497). […] Seven to ten days after seeding growth inhibition is evaluated by comparison to wild type plants. Tolerance factor is calculated by dividing the plant growth IC50 value of transgenic plants containing a HPPD and/or HST sequence by that of wildtype plants. […]

[4] = tested on: transgenic Arabidopsis plants overexpressing Synechocystis HPPD (Seq ID: 20); assay: Arabidopsis growth inhibition in 48-well plates, line overexpressing Synechocystis HPPD; type: in vivo, Arabidopsis thaliana; conditions: Synechocystis (Seq ID: 20) overexpression line; plant growth IC50 of transgenic divided by that of wildtype plants
Description: Various methods for the production of stably transformed plants are well known in the art. Coumarone-derivative herbicide tolerant soybean (Glycine max) or corn (Zea mays) plants can be produced by a method described by Olhoft et al. (US patent 2009/0049567). Briefly, HPPD or HST encoding polynucleotides are cloned into a binary vector using standard cloning techniques as described by Sambrook et al. (Molecular cloning (2001) Cold Spring Harbor Laboratory Press). The final vector construct contains an HPPD or HST encoding sequence flanked by a promoter sequence (e.g. the ubiquitin promoter (PcUbi) sequence) and a terminator sequence (e.g. the nopaline synthase terminator (NOS) sequence) and a resistance marker gene cassette (e.g. AHAS) (FIG. 2). Optionally, the HPPD or HST gene can provide the means of selection. Agrobacterium-mediated transformation is used to introduce the DNA into soybean's axillary meristem cells at the primary node of seedling explants. After inoculation and co-cultivation with Agrobacteria, the explants are transferred to shoot induction medium without selection for one week. […]
Depending on the species, the plants are kept at 10-25° C. or 20-35° C. […] During this time, the plants are tended and their response to the individual treatments is evaluated. […] Tolerance to coumarone-derivative herbicides can also be assessed in Arabidopsis. […]

Compound	Injury evaluation, scale of 1-100, bleaching phenotype ([1]; 6.25 g/ha)	Injury evaluation, scale of 1-100, bleaching phenotype ([1]; 25 g/ha)	Injury evaluation, scale of 1-100, bleaching phenotype ([1]; 100 g/ha)	Injury evaluation, scale of 1-100, bleaching phenotype ([2]; 6.25 g/ha)	Injury evaluation, scale of 1-100, bleaching phenotype ([2]; 25 g/ha)	Injury evaluation, scale of 1-100, bleaching phenotype ([2]; 100 g/ha)	Tolerance factor [3]	Tolerance factor [4]	Injury evaluation, scale of 1-100, bleaching phenotype ([1]; 2.5 g/ha)	Injury evaluation, scale of 1-100, bleaching phenotype ([1]; 10 g/ha)	Injury evaluation, scale of 1-100, bleaching phenotype ([1]; 40 g/ha)	Injury evaluation, scale of 1-100, bleaching phenotype ([2]; 2.5 g/ha)	Injury evaluation, scale of 1-100, bleaching phenotype ([2]; 10 g/ha)	Injury evaluation, scale of 1-100, bleaching phenotype ([2]; 40 g/ha)
Cc1c(C(=O)c2cnn(C)c2O)ccc(S(C)(=O)=O)c1C1=NOCC1 [Topramezone, reference compound]	8	4	15	0	0	0	–	–	–	–	–	–	–	–
CC1=NOC(c2c(Cl)ccc(C3=C(O)c4ncccc4C(C)(C)S3(=O)=O)c2Cl)C1 (stereo not shown) [Inhibitor 1, 7-[2,4-dichloro-3-(3-methyl-4,5-dihydroisoxazol-5-yl)phenyl]-5,5-dimethyl-6,6-dioxo-thiopyrano[4,3-b]pyridin-8-ol]	–	–	–	–	–	–	1	1	–	–	–	–	–	–
CC1(C)c2cccnc2C(O)=C(c2ccc(Cl)nc2Cl)S1(=O)=O [Inhibitor 2, 7-(2,6-dichloro-3-pyridyl)-5,5-dimethyl-6,6-dioxo-thiopyrano[4,3-b]pyridin-8-ol]	–	–	–	–	–	–	1	1	1	1	5	6	4	6
